Measurements taken from patent US11786476B2, “Oral dosage form” (Universiteit Gent, priority 2016, dated 2023).
Structures can show the parent of a compound that is named as a salt.

How the values were obtained:
[1] = Powder characteristics of raw materials (particle size and geometry); type: physicochemical; conditions: raw material powder; for D90: 90% of particles smaller than this diameter
[2] = literature values; cited from earlier work

Compound	D10 [1]	D50 [1]	Sphericity [1]	D90 [1]	aqueous solubility [2]
CC(=O)Nc1ccc(O)cc1 [Acetaminophen, acetaminophen]	1.7 μm	6.4 μm	0.84	20.1 μm	–
CN(C)C(=N)N=C(N)N [Metformin · HCl, metformin hydrochloride]	8.4 μm	51.6 μm	0.87	150.2 μm	–
COc1cccc(C2(O)CCCCC2CN(C)C)c1 (stereo not drawn) [tramadol]	–	–	–	–	30 to 100 mg/mL
